Non-standard residues stand in square brackets, D forms with d. Residues, ends and D or L forms follow the SMILES beside them. pGlu = O=C1CC[CH](C(=O)O)N1
melting point [°C]	SMILES
148 to 149	Clc1ccc(-c2[nH]c3c(Cl)cc(Cl)cc3c2Cl)cc1
190 to 193	CCCc1c(/C=C/c2ccccc2C)nc2ccc(C(=O)OC)cn2c1=O
117 to 119	COc1ccc(C2SCCCS2)cc1
159 to 162	Cc1[nH]c2ccc(F)cc2c1C(=O)NC1CCN(CCc2ccccc2)CC1
154	COc1ccc(S(=O)(=O)N2C(=O)C(c3ccccc3OC)(N3C[C@H](OCC(=O)NC(C)(CO)CO)C[C@H]3C(=O)N(C)C)c3cc(Cl)ccc32)c(OC)c1 (some centres undefined)
92 to 94	O=C(Nc1ccc(Oc2ccnc(NCCN3CCCC3)n2)c2ccccc12)c1cc(F)cc(N2CCCCC2)c1
165 to 168	COc1ccc(C(C)(C)C)cc1C(=O)NCCc1ccc(OC)c(S(N)(=O)=O)c1
71 to 74	CCOC(=O)C=C(C)c1ccc([N+](=O)[O-])cc1
130 to 132	Cc1c(CNc2cccc(N)n2)c(C)c(CNc2cccc(N)n2)c(C)c1CNc1cccc(N)n1
97 to 98	O=C(OCc1ccccc1)c1cc(-c2ccc(-c3ccc(C(F)(F)F)cc3)o2)ccc1OCc1ccccc1
248	OCc1c(Br)c(Br)c(CO)c(Br)c1Br
49 to 51	C1CNCCNCCCNCCNCCNC1
180 to 183	CS(=O)(=O)Nc1ccc(OCC2CCNCC2)cc1
78	CCN(CC(=O)O)c1ccc(OCC(C)(C)C)c(C#N)c1
67	COc1ccc(C(Cl)=CC(=O)C(F)(F)C(F)(F)F)cc1OC
123	CC(=O)NCc1nc(NCCCOc2cccc(CN3CCCCC3)c2)n(C)n1
193	O=C(O)CCc1cccc(-c2nc(=O)c3ccc(C(F)(F)F)cc3s2)n1
47 to 51	CCOc1ccc(C2=NN(CCCCCCBr)C(=O)[C@H]3CCCC[C@@H]23)cc1OCC (relative stereo)
151 to 153	NC(=O)Nc1ccccc1S
199 to 204	O=C1Cc2cc(CCN3CCC(c4noc5cc(F)ccc45)CC3)ccc2N1
124 to 126	CN(C)C=Cc1cccc(CC(=O)O)c1[N+](=O)[O-]
50 to 65	COc1ncccc1OCC(O)CNC(C)C (centres undefined)
109 to 111	Nc1cc(I)cnc1N
149 to 151	COC(=O)c1cc(-c2nnnn2C)c(C(=O)OC)s1
> 250	O=C(Nc1ccc(Cl)nc1)N1CC2(c3ccc(Cl)cc3)COc3cc(Cl)ccc3C2=N1 (centres undefined)

melting point [°C]	SMILES
211 to 212	O=C(Cn1c(-c2cccc(Cl)c2)nc2cccnc21)Nc1ccccc1
243 to 245	CCOC(=O)c1cn(CC)c2nc(C=O)c(O)cc2c1=O
131 to 132	Cc1oc(-c2ccccc2)nc1COc1ccc(CON=C(CCC(=O)O)c2ccc(Oc3ccccc3)cc2)cc1
175	CCCc1cc2c(NC(=S)N3Cc4ccccc4CC3CCO)cccc2cn1 (racemic)
206 to 207	Cc1ccc(CCC(N)CC(=O)O)cc1 (centres undefined)
196 to 197	NC(=S)Nc1cc(C(F)(F)F)ccc1N1CCOCC1
127 to 130	O=C(NCc1ncc(C(F)(F)F)cc1Cl)c1ccccc1C(F)(F)F
132 to 136	CC(C)c1cc(CN2C(=O)C3(COc4cc5c(cc43)OCO5)c3ccccc32)on1 (centres undefined)
137 to 138	COc1cc(COc2nn(-c3ccccc3)cc2/C=C\c2cscn2)ccc1OCc1nc(-c2ccco2)oc1C
105 to 106	CCOC(=O)C1CN(C(=O)C2=Cc3cc(OC)c(OC)cc3CCC2)CCN1 (centres undefined)
56 to 59	CON=C(C1=NOCCO1)c1ccccc1COc1ccn(-c2ccc(Cl)cc2)n1
137 to 143	CSC(=C[N+](=O)[O-])S(C)=O (centres undefined)
86	CCC1CCCCN1C(=O)c1cc2ccccc2c(-c2ccccc2)n1 (centres undefined)
275 to 277	Cc1nc2cc(NC(=O)c3ccc(Cl)cc3Cl)ccc2n1C
131 to 133	O=C(O)COc1cccc2c1Cc1sc(S(=O)(=O)CCC(c3ccccc3)c3ccccc3)nc1-2
170 to 171	COc1ccc(-c2ncc(C(=O)O)s2)cc1OC1CCCC1
74 to 75	CSc1ccc2c(c1)CN(C(C)C)S(=O)(=O)N2CCCl
214 to 218	CCCCOc1nc(N)c2[nH]c(=O)n(CCCNCc3cccc(C(=O)OC)c3)c2n1
233 to 235	COc1cccc2c1CCC(n1cc[nH]c1=S)C2 (centres undefined)
157 to 159	COc1cc(C(NC(=O)OC(C)(C)C)C(c2ccccc2)[N+](=O)[O-])ccc1Br (centres undefined)
223 to 224	CC1(C)OC(=O)Nc2ccc(-c3cccc(-c4nccs4)c3)cc21
158 to 159	Nc1c2c(nc3ccc(F)cc13)-c1ccccc1CC2
200	O=C(Cn1c(-c2ccc(Cl)cc2)nc2cccnc21)NCc1ccccc1
90 to 93	C(OCC1CO1)C1CO1 (centres undefined)
300	CC(C)c1nc(O)c([N+](=O)[O-])c(O)n1

melting point [°C]	SMILES
> 220	COC(=O)c1ccc(CCc2c[nH]c3nc(N)[nH]c(=O)c23)cc1
162 to 165	N#Cc1cc(C(=O)CBr)ccc1N
218 to 221	NC(=O)CC(NC(=O)C(CO)NC(=O)CNC(=O)CNC(=O)C1CCC(=O)N1)C(=O)NC(Cc1ccccc1)C(N)=O (centres undefined) ([pGlu]GGSNF-NH2; configuration not given here)
217 to 222	CC(=O)SCC(Cc1ccccc1)C(=O)Nc1cc(C(=O)O)ccc1N1CCCC1 (centres undefined)
210	CNc1nc2ccn(Cc3ccc(F)cc3)cc-2n1
292 to 294	COc1ccc(-c2cc(O)nc(Nc3ccc(OC)c(Cl)c3)n2)cc1
154 to 155	CCCCn1nnc(NCc2ccc(-c3ccccc3-c3nnn[nH]3)cc2)c1C(=O)O
176 to 178	C#CCN(c1cc(-n2nc3ccc(Cl)cn3c2=O)c(F)cc1C#N)S(=O)(=O)CC
74 to 76	COC(=O)CCCCCCCCCCCCCCCCCCCCCOS(=O)(=O)c1ccc(C)cc1
124 to 126	BrC(Br)(Br)c1ccc2cc(I)ccc2n1
217 to 219	C=CCNC(=O)N1CCc2cc(S(=O)(=O)N3CC(c4ccccc4)NC3=O)ccc21 (centres undefined)
165	Nc1c(Cl)cc(C(=O)Cl)cc1Cl
108 to 116	Cc1nc2c(-c3cccc(N4CCN(CCO)CC4)c3)cnn2c(N)c1-c1cccc(Cl)c1
73 to 75	CCCCCCCCCCCCN(N)C(=O)NC
149 to 151	Cc1ncc(OC2CCCCO2)c(=O)[nH]1 (centres undefined)
132 to 133	C[C@H]1CN(Cc2ccccc2)C[C@H]1NC(=O)OC(C)(C)C (relative stereo)
163 to 164	CNS(=O)(=O)c1ccccc1Nc1nc(Nc2ccc3c(c2)COCCN3C)ncc1Cl
194 to 196	CCc1cc(Oc2ccc(S(C)(=O)=O)nc2)cc2cc(C3=NCC(CC(=O)N4CCS(=O)CC4)S3)[nH]c12 (centres undefined)
130 to 131	COc1ccc(C[C@@H](NC(=O)CCCc2ccccc2)[C@@H](O)c2ccc(F)cc2)cc1 (racemic)
128 to 130	COC(=O)c1ccc2c(c1)C(S(=O)(=O)c1ccccc1)CC(=O)CO2 (centres undefined)
143	COc1cc(C(C)C)cc(OC)c1-c1nc(N)sc1CCC1CCCCC1
150 to 152	O=C(NCCCCc1cccnc1)c1ccc(-c2cccc(O)c2)cc1
247 to 248	Cc1cc(Nc2cc(F)c(F)cc2C(=O)O)n(-c2ccccn2)n1
139 to 140	COc1ccc(-c2c(Cl)c(CN3CCCC3=O)nc3sc4c(c23)CCN(Cc2ccccc2)C4)cc1OC
36 to 38	CC1=C(C)C(=O)C(CCCCO)=C(C)C1=O

melting point [°C]	SMILES
130 to 131	COCCn1nc(C(N)=O)cc1CC(C)(C)C#N
> 250	N#CNC1NN=C(c2ccc3ccccc3c2)O1 (centres undefined)
197 to 199	CCc1cc(Cl)cc2c1OC(C(F)(F)F)C(C(=O)O)=C2 (centres undefined)
107 to 108	CC(C)c1nc(-c2cccs2)cc(-c2ccc(F)cc2)c1C=C(Br)Br
104 to 106	CC1CC(N)=NN1c1ccccc1 (centres undefined)
167	O=c1c(Cl)c(OCc2ccc(Cl)cc2)cnn1-c1ccc(F)cc1F
178 to 179	CCOC1CC2(C)C(CCC3C4CC(C)C(C(C)=O)C4(C)CC(=O)C32)CC1O (centres undefined)
174 to 175	CN1CCN(C(=O)Cn2c(-c3cc(Cl)ccn3)nc3cccnc32)CC1
167	C=CC(=O)NCc1ccc(CBr)cc1
240 to 243	O=C(O)COc1cccc2c1CCc1sc(NCCC(c3ccccc3)c3ccccc3)nc1-2
148 to 150	C=CCCOc1ccc(C[C@H](NC(=O)OC(C)(C)C)C(=O)O)cc1
110 to 112	COc1ccc(C(=O)Nc2ccc(-c3ccc(C(C)=O)cc3C)cc2)cc1CCCN(C)C
207 to 209	CCCC(=O)OCCOc1ccc2oc3cc(-c4nnn[nH]4)ccc3c(=O)c2c1
226	Cn1cncc1C(O)(c1ccc(Cl)cc1)c1cc2nnn3c(=O)cc(-c4cccc(Cl)c4)c(c1)c23 (centres undefined)
144 to 146	C[Si](C)(C)C#Cc1ccc(C#Cc2ccc(F)cc2)cc1
91 to 96	O=C(/C=C/c1ccc(N2CCCCC2)cc1)CC(=O)/C=C/c1ccc2cc[nH]c2c1
72 to 75	CCCCCCCCCCCCCCOc1ccc(CNc2ccccc2CO)cc1
149 to 151	O=C1CCc2c(Br)cc([N+](=O)[O-])c(O)c21
139 to 141	CC(C(=O)O)c1ccc(C(=O)c2ccc(Cl)cc2)n1C (centres undefined)
156 to 157	CC(C)(C)OC(=O)N1CC(COS(C)(=O)=O)c2c1cc(OCc1ccccc1)c1ncccc21 (centres undefined)
223 to 225	COc1cc(OC(C)(C)C(=O)O)c(C=CC(=O)c2ccc(C(=O)O)cc2)cc1-c1cccs1
204 to 206	FC(F)(F)c1n[nH]cc1-c1nc(Nc2ccccn2)cs1

SMILES	melting point [°C]
CCN1C(=O)C(=C2C=C(N3CCCC3)CC(C)(C)C2)C(=O)N(CC)C1=S	226 to 227
CN1Cc2c(-c3nc(CN(CC4CC4)CC4CC4)no3)ncn2-c2ccccc2C1=O	170 to 174
